This is an account of results in publication PMC10702441 (2023).

The structures appear in SMILES notation.

What all share (experiment): ITC
A general note: ITC needs no label: the signal is the heat of the interaction.

Test [1] has as its system Aca domain I split construct (dom I; 28-mer + 22-mer) (RNA, riboswitch) GGGCGCAACAUCCCCGCCGGUUGGGCGC/GCGCAGUGAACCGGCUGCGUCC
The settings on record: 100 mM NaCl, 20 mM MgCl2, 0.10 M Na-HEPES pH 7.0, 10 °C, 1:1 model, apparent.

The subject of test [2] is Aai full-length NAD+-I (nadA) riboswitch, 100-mer (RNA, riboswitch) GGCUGCAACAUCCCCGUGGGUUGGACGGCGAAAGCCGUAGCGAAUCCACUGCAGCCUGUAUGGCUUUCAACAUCCCCGUCCGCGAAAGCGGACUGAAGGC
For test [3], the system named is Aca domain II split construct (dom II; 28-mer + 20-mer) (RNA, riboswitch) GCUUUCAACAUCCCCGUCCCGGGCGGAG/CUCCGCAGUGGACUGAAGGC
To be noted: 100 mM NaCl, 20 mM MgCl2; 0.10 M Na-HEPES pH 7.0, 10 °C; ligand in syringe 0.40–0.63 mM.

The mark [4] stands for this setting: 100 mM NaCl, 20 mM MgCl2, 0.10 M Na-HEPES pH 7.0, 10 °C, 1:1 model, apparent.

In the case of `NC(=O)C1=CN([C@@H]2O[C@H](COP(=O)(O)OP(=O)(O)OC[C@H]3O[C@@H](n4cnc5c(N)ncnc54)[C@H](O)[C@@H]3O)[C@@H](O)[C@H]2O)C=CC1`, the results for the KD in test [1] and in test [2] (setting [4]) were 55.5 ± 3.6 µM and 59.7 ± 2.2 µM, respectively. Besides, the binding result in test [3] is listed as “no”.
On to `NC(=O)c1ccc[n+]([C@@H]2O[C@H](COP(=O)(O)OP(=O)(O)OC[C@H]3O[C@@H](n4cnc5c(N)ncnc54)[C@H](O)[C@@H]3O)[C@@H](O)[C@H]2O)c1`, for which the KD in test [1] is 24.6 ± 8.4 µM; in test [2] (setting [4]), 31.5 ± 1.5 µM; in test [2] (K+ (KCl replacing NaCl), KCl-containing ITC buffer, 10 °C, no significant change from Na+), 18.2 ± 2.1 µM. Besides, the binding result in test [3] was “no”.
In the case of `NC(=O)c1ncn([C@@H]2O[C@H](COP(=O)(O)OP(=O)(O)OC[C@H]3O[C@@H](n4cnc5c(N)ncnc54)[C@H](O)[C@@H]3O)[C@@H](O)[C@H]2O)n1`, the KD in test [1] (error printed ± 7.1) was found to be 21.9 ± 8.4 µM; in test [2] (setting [4]), 30.2 ± 1.2 µM.
In the case of `Nc1ncnc2c1ncn2[C@@H]1O[C@H](COP(=O)(O)OP(=O)(O)O)[C@@H](O)[C@H]1O`, the figures for the KD in test [1] and in test [2] (setting [4]) were 11.1 ± 0.6 µM and 9.7 ± 1.1 µM, respectively.
In the case of `Nc1ncnc2c1ncn2[C@@H]1O[C@H](COP(=O)(O)OP(=O)(O)OP(=O)(O)O)[C@@H](O)[C@H]1O`, the KD in test [2] (setting [4]) was determined as 11.0 ± 3.5 µM.
